The values below come from ChEMBL document CHEMBL1955773, “Hit to lead SAR study on benzoxazole derivatives for an NPY Y5 antagonist” (Bioorg Med Chem Lett, 2012).

Structures are written as SMILES.

A short description of data set [1]: Metabolic stability of the compound in rat microsomes assessed as compound remaining after 30 mins. It counts as ADME, Microsome. The conditions noted are these: read-out: Stability.
Data set [2] can be described thus: Total clearance in rat at 0.5 mg/kg, iv and 1 mg/kg, po. The conditions noted are these: in vivo. In kind it is ADME, organism-based.
Data set [3] is described as follows: Cmax in rat at 0.5 mg/kg, iv and 1 mg/kg, po. In kind it is ADME, organism-based. The conditions noted are these: in vivo.
Data set [4] in a line: AUC (0 to infinity) in rat at 0.5 mg/kg, iv and 1 mg/kg, po. It counts as ADME, organism-based. As to conditions: plasma.
Data set [5] is described as follows: Volume of distribution at steady state in rat at 0.5 mg/kg, iv and 1 mg/kg, po. In kind it is ADME, organism-based. As to conditions: in vivo, read-out: Vdss.
Data set [6] is described as follows: Bioavailability in rat at 0.5 mg/kg, iv and 1 mg/kg, po. In kind it is ADME, organism-based. The conditions noted are these: in vivo.
Data set [7] is described as follows: Ratio drug uptake in brain to plasma of rat at 1 mg/kg, po. It counts as ADME, organism-based. The arrangement: dose 1 mg/kg, route oral. As to conditions: read-out: BPR.
Data set [8] has as its system Cerebrospinal fluid. The data set can be described thus: Drug uptake in rat cerebrospinal fluid at 0.5 mg/kg, iv and 1 mg/kg, po. As to conditions: in vivo, read-out: Drug uptake. It counts as ADME, organism-based.

Take `CCS(=O)(=O)c1ccc2oc(Nc3ccc(C(C)(C)C)cc3)nc2c1`: in data set [1], the remaining at 0.5 h worked out at 27%. Regarding `CCS(=O)(=O)c1ccc2oc(Nc3ccccc3)nc2c1`, in data set [1], the remaining at 0.5 h came out at 53%. In the case of `CCS(=O)(=O)c1ccc2oc(Nc3ccc(Cl)cc3)nc2c1`, the remaining at 0.5 h in data set [1] came out at 81%. Still for that read-out and setting: under `CCS(=O)(=O)c1ccc2oc(Nc3ccc(C(F)(F)F)cc3)nc2c1` stands 101%; under `CCS(=O)(=O)c1ccc2oc(Nc3cccc(C(F)(F)F)c3)nc2c1`, 63%; under `CCS(=O)(=O)c1ccc2oc(Nc3ccccc3C(F)(F)F)nc2c1`, 68%. Still for that read-out and setting: to `CCS(=O)(=O)c1ccc2oc(Nc3ccc(OC(F)(F)F)cc3)nc2c1` belongs 97%.

Consider `CCS(=O)(=O)c1ccc2oc(Nc3ccc(OC(C)C)cc3)nc2c1`, for which, in data set [1], the remaining at 0.5 h was 73%. Also, in data set [2], the clearance is 66 mL/min/kg. In addition, the highest level in data set [3] (Cmax) was 6 ng/mL. In data set [4], this compound showed a total exposure AUC(0-inf) of 40 ng·h/mL. Moreover, the Vd in data set [5] came out at 2.62 L/kg. In data set [6], this compound came in with a bioavailability of 16%. Further, in data set [7], the Kp is 2.63. In addition, the concentration in data set [8] is 8.8 nM. Consider `CCS(=O)(=O)c1ccc2oc(Nc3ccc(N4CCOCC4)cc3)nc2c1`, for which the remaining at 0.5 h in data set [1] was found to be 88%. In the case of `CCS(=O)(=O)c1ccc2oc(Nc3ccc(N4C[C@@H](C)O[C@@H](C)C4)cc3)nc2c1`, in data set [1], the remaining at 0.5 h was found to be 85%. The clearance in data set [2] is 33 mL/min/kg. The compound also had a Cmax in data set [3] of 26 ng/mL. In data set [4], this compound had an AUC(0-inf) of 260 ng·h/mL. The Vd in data set [5] is 1.74 L/kg. The compound further came in with a bioavailability in data set [6] of 52%. The Kp in data set [7] is 0.64. The concentration in data set [8] turned out to be 15.9 nM.

On to `CCS(=O)(=O)c1ccc2oc(Nc3ccc(N4C[C@@H](C)O[C@@H](C)C4)c(F)c3)nc2c1`, for which the remaining at 0.5 h in data set [1] is 61%.

On to `CCS(=O)(=O)c1ccc2oc(Nc3ccc(N4C[C@@H](C)O[C@@H](C)C4)nc3)nc2c1`, for which the remaining at 0.5 h in data set [1] worked out at 59%. `CCOc1ccc(Nc2nc3cc(S(C)(=O)=O)ccc3o2)cc1`: the remaining at 0.5 h in data set [1] is 62%. With `CCOc1ccc(Nc2nc3cc(S(=O)(=O)C(C)C)ccc3o2)cc1`, the remaining at 0.5 h in data set [1] came out at 49%. Same read-out and setting: under `CCOc1ccc(Nc2nc3cc(S(=O)(=O)C(C)(C)C)ccc3o2)cc1` stands 46%; under `CCOc1ccc(Nc2nc3cc(NS(=O)(=O)CC)ccc3o2)cc1`, 59%; under `CCOc1ccc(Nc2nc3ccc(S(=O)(=O)CC)cc3o2)cc1`, 81%. On the same count and under the same terms, to `CCOc1ccc(Nc2nc3ccc(NS(=O)(=O)CC)cc3o2)cc1` belongs 86%; to `CCOc1ccc(Nc2nc3ccc(NS(=O)(=O)C(C)(C)C)cc3o2)cc1`, 57%; to `C[C@@H]1CN(c2ccc(Nc3nc4ccc(NS(=O)(=O)C(C)(C)C)cc4o3)cc2)C[C@H](C)O1`, 68%. As to `CCS(=O)(=O)c1ccc2oc(NC3CCCCC3)nc2c1`, the remaining at 0.5 h in data set [1] was found to be 45%. Regarding `CCS(=O)(=O)c1ccc2oc(NCc3ccccc3)nc2c1`, the remaining at 0.5 h in data set [1] turned out to be 46%.

For the compound `CCS(=O)(=O)c1ccc2oc(NC(C)(C)c3ccccc3)nc2c1`, in data set [1], the remaining at 0.5 h is 35%. Take `CCS(=O)(=O)c1ccc2oc(Nc3ccc(C(F)(F)F)nc3)nc2c1`: in data set [1], the remaining at 0.5 h worked out at 99%. The same measure, in the same setting: under `CCS(=O)(=O)c1ccc2oc(Nc3ccc(C(F)(F)F)cn3)nc2c1` stands 97%; under `CCS(=O)(=O)c1ccc2oc(Nc3ccc(N4CCOCC4)nc3)nc2c1`, 81%.

`CCS(=O)(=O)c1ccc2oc(NC3CCC(C(C)(C)C)CC3)nc2c1` (mixture of isomers): the remaining at 0.5 h in data set [1] was 1%.
